Results published in ChEMBL document CHEMBL4152386, “Discovery of a Novel Inhaled PI3Kδ Inhibitor for the Treatment of Respiratory Diseases” (J Med Chem, 2018).
Converted amounts (≈) assume the structure as drawn.

What was measured:
[1] = target: T1, Phosphatidylinositol 4,5-bisphosphate 3-kinase catalytic subunit delta isoform (Mus musculus, UniProt O35904); experiment: Inhibition of mouse ABD-truncated p110delta catalytic subunit (unknown origin) expressed in Sf9 cells using diC8-PIP2 substrate incubated for 1 hr by fluorescence polarization assay
T1 sequence (O35904 whole entry): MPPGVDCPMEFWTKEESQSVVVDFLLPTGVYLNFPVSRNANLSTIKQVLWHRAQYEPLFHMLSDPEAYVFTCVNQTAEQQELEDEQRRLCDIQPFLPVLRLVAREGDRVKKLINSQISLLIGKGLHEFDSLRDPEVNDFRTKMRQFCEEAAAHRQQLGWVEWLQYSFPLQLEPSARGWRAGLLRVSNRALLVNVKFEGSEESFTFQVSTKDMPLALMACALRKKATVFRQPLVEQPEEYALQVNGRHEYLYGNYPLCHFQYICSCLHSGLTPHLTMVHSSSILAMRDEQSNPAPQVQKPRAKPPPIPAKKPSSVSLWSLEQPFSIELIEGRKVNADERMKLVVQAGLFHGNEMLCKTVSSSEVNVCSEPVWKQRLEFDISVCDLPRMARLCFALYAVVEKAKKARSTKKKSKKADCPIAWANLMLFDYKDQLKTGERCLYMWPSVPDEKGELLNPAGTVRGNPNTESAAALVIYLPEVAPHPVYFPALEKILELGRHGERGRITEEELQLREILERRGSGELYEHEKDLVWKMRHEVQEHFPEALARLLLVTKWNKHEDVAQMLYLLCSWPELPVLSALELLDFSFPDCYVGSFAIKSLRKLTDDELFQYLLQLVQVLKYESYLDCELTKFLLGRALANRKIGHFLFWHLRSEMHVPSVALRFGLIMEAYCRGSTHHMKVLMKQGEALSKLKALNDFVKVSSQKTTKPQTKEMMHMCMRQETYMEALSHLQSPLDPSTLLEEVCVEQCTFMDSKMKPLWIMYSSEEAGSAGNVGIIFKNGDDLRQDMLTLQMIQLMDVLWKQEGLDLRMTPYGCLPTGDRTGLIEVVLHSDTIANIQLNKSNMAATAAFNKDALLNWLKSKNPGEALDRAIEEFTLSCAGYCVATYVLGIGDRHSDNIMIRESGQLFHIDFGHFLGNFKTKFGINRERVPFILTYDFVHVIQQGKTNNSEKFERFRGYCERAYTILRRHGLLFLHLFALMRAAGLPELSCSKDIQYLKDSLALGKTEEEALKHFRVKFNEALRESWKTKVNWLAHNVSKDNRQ

[2] = target: Phosphatidylinositol 4,5-bisphosphate 3-kinase catalytic subunit gamma isoform (Homo sapiens, UniProt P48736); experiment: Inhibition of recombinant human N-terminal His6-tagged full length p110gamma using PIP2 as substrate preincubated for 30 mins followed by substrate addition by HTRF assay
Sequence of Phosphatidylinositol 4,5-bisphosphate 3-kinase catalytic subunit gamma isoform (P48736 whole entry, canonical isoform): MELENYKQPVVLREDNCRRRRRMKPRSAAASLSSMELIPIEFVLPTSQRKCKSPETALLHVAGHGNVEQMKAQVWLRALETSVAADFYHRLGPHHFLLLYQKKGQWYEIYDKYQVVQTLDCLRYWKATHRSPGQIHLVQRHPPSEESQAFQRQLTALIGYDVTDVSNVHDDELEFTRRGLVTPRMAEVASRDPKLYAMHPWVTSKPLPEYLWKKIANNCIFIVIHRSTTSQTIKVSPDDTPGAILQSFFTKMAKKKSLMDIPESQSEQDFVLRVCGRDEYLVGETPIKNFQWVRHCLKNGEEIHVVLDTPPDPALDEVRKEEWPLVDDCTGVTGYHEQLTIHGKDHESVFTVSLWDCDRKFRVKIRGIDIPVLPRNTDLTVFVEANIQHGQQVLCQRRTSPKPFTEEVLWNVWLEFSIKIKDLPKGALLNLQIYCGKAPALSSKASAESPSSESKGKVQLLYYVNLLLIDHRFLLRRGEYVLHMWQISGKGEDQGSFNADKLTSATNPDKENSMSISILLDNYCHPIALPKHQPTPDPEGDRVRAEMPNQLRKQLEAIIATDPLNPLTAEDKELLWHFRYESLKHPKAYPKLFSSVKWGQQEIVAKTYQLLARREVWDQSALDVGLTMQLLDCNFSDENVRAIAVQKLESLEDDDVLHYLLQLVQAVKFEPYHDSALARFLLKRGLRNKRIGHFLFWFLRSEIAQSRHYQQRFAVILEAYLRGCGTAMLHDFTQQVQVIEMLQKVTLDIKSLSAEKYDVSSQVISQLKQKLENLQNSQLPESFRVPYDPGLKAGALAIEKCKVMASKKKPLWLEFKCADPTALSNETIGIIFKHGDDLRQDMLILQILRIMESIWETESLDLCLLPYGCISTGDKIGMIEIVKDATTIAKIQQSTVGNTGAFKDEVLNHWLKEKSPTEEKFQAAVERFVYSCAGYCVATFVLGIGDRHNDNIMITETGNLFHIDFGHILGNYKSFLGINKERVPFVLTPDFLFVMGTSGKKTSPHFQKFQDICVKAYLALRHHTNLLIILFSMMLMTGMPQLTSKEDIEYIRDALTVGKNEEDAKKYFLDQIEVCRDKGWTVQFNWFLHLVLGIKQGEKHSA

[3] = Drug metabolism in rat liver microsomes assessed as disappearance of parent compound at 5 uM after 30 mins in presence of NADPH by UPLC-MS/MS analysis; type: ADME, microsome; details: read-out: Drug metabolism
[4] = Drug metabolism in rat liver microsomes assessed as disappearance of parent compound at 5 uM preincubated for 3 mins followed UDPG addition and measured after 120 mins by UPLC-MS/MS analysis; type: ADME, microsome; details: read-out: Drug metabolism
[5] = Drug metabolism in human liver microsomes assessed as disappearance of parent compound at 5 uM after 30 mins in presence of NADPH by UPLC-MS/MS analysis; type: ADME, microsome; details: read-out: Drug metabolism
[6] = Drug metabolism in human liver microsomes assessed as disappearance of parent compound at 5 uM preincubated for 3 mins followed UDPG addition and measured after 120 mins by UPLC-MS/MS analysis; type: ADME, microsome; details: read-out: Drug metabolism
[7] = target: T2, Phosphatidylinositol 4,5-bisphosphate 3-kinase catalytic subunit delta isoform (Homo sapiens, UniProt O00329); experiment: Inhibition of PI3Kdelta in human THP-1 cells assessed as reduction in M-CSF-stimulated AKT phosphorylation at Thr308 preincubated for 30 mins followed by M-CSF addition for 3 mins by ELISA; type: cell-based
T2 sequence (O00329 whole entry): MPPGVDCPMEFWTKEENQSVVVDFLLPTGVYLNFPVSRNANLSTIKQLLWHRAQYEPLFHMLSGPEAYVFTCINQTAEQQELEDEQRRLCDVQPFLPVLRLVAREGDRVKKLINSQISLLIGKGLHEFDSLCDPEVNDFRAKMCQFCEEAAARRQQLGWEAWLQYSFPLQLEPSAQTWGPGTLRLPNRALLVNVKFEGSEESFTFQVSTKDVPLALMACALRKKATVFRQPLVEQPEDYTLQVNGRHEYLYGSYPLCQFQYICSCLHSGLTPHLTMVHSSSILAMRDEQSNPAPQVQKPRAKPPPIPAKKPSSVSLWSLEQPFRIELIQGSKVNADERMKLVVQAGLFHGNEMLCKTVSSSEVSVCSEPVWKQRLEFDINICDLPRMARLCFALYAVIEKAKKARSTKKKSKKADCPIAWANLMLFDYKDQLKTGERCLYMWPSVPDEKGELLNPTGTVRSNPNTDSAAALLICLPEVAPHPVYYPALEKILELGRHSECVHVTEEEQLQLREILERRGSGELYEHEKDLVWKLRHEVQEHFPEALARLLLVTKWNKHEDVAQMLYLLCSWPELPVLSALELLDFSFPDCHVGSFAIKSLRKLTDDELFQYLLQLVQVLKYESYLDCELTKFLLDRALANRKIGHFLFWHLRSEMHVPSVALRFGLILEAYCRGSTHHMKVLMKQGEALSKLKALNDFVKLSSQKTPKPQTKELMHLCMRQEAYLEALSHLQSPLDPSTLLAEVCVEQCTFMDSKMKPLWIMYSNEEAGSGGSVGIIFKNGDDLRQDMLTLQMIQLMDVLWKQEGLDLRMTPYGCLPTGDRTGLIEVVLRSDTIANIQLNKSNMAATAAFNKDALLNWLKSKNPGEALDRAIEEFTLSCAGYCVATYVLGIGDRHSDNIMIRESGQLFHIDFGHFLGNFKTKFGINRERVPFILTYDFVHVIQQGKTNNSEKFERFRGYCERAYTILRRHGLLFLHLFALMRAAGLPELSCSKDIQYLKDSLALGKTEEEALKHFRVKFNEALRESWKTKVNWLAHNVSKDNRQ

[8] = Apparent permeability of the compound at 20 uM by PAMPA assay; type: ADME
[9] = Thermodynamic aqueous solubility of the compound at pH 7.4; type: physicochemical; details: buffer, read-out: Therm_solubility
[10] = AUC in Wistar rat at 1 mg/kg, iv; type: ADME, organism-based; details: in vivo
[11] = Cmax in Wistar rat at 1 mg/kg, iv; type: ADME, organism-based; set-up: dose 1 mg/kg, route intravenous; details: in vivo
[12] = Clearance in Wistar rat at 1 mg/kg, iv; type: ADME, organism-based; details: in vivo
[13] = Volume of distribution at steady state in Wistar rat at 1 mg/kg, iv; type: ADME, organism-based; details: in vivo, read-out: Vdss
[14] = Half life in Wistar rat at 1 mg/kg, iv; type: ADME, organism-based; details: in vivo
[15] = Oral bioavailability in Wistar rat at 1 mg/kg; type: ADME, organism-based; details: in vivo
[16] = Protein binding in rat plasma at 1 uM by equilibrium dialysis; type: ADME, cell-free; details: read-out: PPB (converted)
[17] = AUC in Wistar rat lung at 0.015 mg/kg, it administered as solution; type: ADME, organism-based; details: in vivo, inhaled_or_intranasal
[18] = AUC in Wistar rat lung at 0.3 mg/kg, it administered as suspension; type: ADME, organism-based; details: in vivo, inhaled_or_intranasal
[19] = AUC in Wistar rat plasma at 0.015 mg/kg, it administered as solution; type: ADME, organism-based; details: inhaled or intranasal
[20] = AUC in Wistar rat plasma at 0.3 mg/kg, it administered as suspension; type: ADME, organism-based; details: inhaled or intranasal
[21] = Ratio of AUC in lung to plasma of Wistar rat at 0.015 mg/kg, it administered as solution; type: ADME, organism-based
[22] = Ratio of AUC in lung to plasma of Wistar rat at 0.3 mg/kg, it administered as suspension; type: ADME, organism-based
[23] = Cmax in Wistar rat lung at 0.015 mg/kg, it administered as solution; type: ADME, organism-based; set-up: dose 0.015 mg/kg; details: inhaled or intranasal
[24] = Cmax in Wistar rat lung at 0.3 mg/kg, it administered as suspension; type: ADME, organism-based; set-up: dose 0.3 mg/kg; details: inhaled or intranasal
[25] = Cmax in Wistar rat plasma at 0.015 mg/kg, it administered as solution; type: ADME, organism-based; set-up: dose 0.015 mg/kg; details: inhaled or intranasal
[26] = Cmax in Wistar rat plasma at 0.3 mg/kg, it administered as suspension; type: ADME, organism-based; set-up: dose 0.3 mg/kg; details: inhaled or intranasal
[27] = Half life in Wistar rat lung at 0.015 mg/kg, it administered as solution; type: ADME, organism-based; details: inhaled or intranasal
[28] = Half life in Wistar rat lung at 0.3 mg/kg, it administered as suspension; type: ADME, organism-based; details: inhaled or intranasal
[29] = Half life in Wistar rat plasma at 0.015 mg/kg, it administered as solution; type: ADME, organism-based; details: inhaled or intranasal
[30] = Half life in Wistar rat plasma at 0.3 mg/kg, it administered as suspension; type: ADME, organism-based; details: inhaled or intranasal
[31] = system: Rattus norvegicus; experiment: (§1) Anti-inflammatory activity in Brown Norway rat model of ovalbumin-induced inflammation assessed inhibition of eosinophil infiltration in bronchoalveolar lavage at 0.3 mg/kg, it administered 1 hr before ovalbumin aerosol challenge and measured 24 hrs post challenge by hematology analysis relative to control; type: functional; details: inhaled or nasal
[32] = system: Rattus norvegicus; experiment: as §1, with “neutrophil” for “eosinophil”; type: functional; details: inhaled or nasal
[33] = system: Rattus norvegicus; experiment: as §1, with “0.1” for “0.3”; type: functional; details: inhaled or nasal
[34] = system: Rattus norvegicus; experiment: as §1, with “neutrophils” for “eosinophil”, “0.1” for “0.3”; type: functional; details: inhaled or nasal
[35] = target: Voltage-gated inwardly rectifying potassium channel KCNH2 (Homo sapiens, UniProt Q12809); experiment: Inhibition of human ERG up to 10 uM
[36] = system: Rattus norvegicus; experiment: fCmax in Brown Norway rat model of ovalbumin-induced inflammation assessed inhibition of eosinophil infiltration in bronchoalveolar lavage at 0.3 mg/kg, it administered 1 hr before ovalbumin aerosol challenge and measured 24 hrs post challenge by hematology analysis relative to control; type: organism-based; details: in vivo, inhaled_or_intranasal
[37] = target: PI3-kinase p110-delta/p85-alpha (Homo sapiens, UniProt O00329)
Sequence of PI3-kinase p110-delta/p85-alpha (P27986 whole entry, one chain of several): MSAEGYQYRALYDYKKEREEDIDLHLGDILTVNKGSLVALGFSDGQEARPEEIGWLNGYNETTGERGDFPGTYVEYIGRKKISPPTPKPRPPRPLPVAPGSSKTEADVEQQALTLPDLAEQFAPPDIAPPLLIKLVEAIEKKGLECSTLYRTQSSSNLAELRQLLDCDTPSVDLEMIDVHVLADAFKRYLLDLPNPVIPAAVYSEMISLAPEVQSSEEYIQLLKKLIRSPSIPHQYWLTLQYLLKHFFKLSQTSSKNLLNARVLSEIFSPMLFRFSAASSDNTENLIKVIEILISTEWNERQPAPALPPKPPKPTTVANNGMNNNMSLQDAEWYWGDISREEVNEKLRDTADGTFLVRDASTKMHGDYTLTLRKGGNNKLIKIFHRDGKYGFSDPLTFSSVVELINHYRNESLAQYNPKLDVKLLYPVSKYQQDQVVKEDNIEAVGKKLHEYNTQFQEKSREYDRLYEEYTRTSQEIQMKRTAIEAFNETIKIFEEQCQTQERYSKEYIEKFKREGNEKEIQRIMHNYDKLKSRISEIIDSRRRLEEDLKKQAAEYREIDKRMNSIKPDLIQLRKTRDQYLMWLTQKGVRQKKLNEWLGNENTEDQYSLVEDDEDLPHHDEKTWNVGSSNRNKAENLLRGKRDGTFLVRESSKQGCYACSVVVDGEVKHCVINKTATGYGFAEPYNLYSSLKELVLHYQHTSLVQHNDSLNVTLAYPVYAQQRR
Description: Inhibition of recombinant human N-terminal His-tagged full length p110delta/recombinant human full length p85alpha using PIP2 as substrate preincubated for 30 mins followed by substrate addition by HTRF assay

[38] = target: PI3-kinase p110-alpha/p85-alpha (Homo sapiens, UniProt P42336)
Sequence of PI3-kinase p110-alpha/p85-alpha (P27986 whole entry): as the sequence (P27986 whole entry, one chain of several) above
Sequence of PI3-kinase p110-alpha/p85-alpha (P42336 whole entry): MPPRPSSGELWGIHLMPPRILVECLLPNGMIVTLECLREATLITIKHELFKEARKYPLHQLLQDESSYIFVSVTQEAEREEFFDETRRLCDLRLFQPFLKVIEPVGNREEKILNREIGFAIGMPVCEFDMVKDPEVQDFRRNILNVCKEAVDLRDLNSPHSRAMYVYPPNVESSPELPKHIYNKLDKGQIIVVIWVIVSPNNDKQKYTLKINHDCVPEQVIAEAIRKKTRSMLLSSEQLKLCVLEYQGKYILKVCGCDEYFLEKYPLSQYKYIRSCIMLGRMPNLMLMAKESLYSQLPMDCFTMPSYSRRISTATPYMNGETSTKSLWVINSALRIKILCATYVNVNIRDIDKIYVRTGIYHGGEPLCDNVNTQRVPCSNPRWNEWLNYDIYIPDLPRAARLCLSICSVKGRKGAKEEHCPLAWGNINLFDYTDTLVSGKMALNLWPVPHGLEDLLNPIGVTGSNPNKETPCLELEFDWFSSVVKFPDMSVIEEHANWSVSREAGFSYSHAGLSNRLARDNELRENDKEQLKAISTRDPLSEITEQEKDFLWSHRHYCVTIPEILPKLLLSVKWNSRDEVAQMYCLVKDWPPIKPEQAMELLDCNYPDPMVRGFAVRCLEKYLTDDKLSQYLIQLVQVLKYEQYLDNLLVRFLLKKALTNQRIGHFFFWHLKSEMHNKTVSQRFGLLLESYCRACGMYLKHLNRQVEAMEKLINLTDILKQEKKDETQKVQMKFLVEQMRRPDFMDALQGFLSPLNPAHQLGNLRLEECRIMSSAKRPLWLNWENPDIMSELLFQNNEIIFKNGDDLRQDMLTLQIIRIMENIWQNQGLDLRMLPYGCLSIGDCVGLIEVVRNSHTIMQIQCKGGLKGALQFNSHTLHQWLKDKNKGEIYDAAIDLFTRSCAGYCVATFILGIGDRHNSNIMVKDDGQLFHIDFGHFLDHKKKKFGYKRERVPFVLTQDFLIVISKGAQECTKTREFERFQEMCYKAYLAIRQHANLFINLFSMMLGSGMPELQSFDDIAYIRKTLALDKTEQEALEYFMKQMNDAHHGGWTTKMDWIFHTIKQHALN
Description: Inhibition of recombinant human N-terminal His6-tagged full length p110alpha/recombinant human full length p85alpha using PIP2 as substrate preincubated for 30 mins followed by substrate addition by HTRF assay

[39] = target: PI3K p110 beta/p85 alpha (Homo sapiens, UniProt P42338)
Sequence of PI3K p110 beta/p85 alpha (P27986 whole entry): as the sequence (P27986 whole entry, one chain of several) above
Sequence of PI3K p110 beta/p85 alpha (P42338 whole entry): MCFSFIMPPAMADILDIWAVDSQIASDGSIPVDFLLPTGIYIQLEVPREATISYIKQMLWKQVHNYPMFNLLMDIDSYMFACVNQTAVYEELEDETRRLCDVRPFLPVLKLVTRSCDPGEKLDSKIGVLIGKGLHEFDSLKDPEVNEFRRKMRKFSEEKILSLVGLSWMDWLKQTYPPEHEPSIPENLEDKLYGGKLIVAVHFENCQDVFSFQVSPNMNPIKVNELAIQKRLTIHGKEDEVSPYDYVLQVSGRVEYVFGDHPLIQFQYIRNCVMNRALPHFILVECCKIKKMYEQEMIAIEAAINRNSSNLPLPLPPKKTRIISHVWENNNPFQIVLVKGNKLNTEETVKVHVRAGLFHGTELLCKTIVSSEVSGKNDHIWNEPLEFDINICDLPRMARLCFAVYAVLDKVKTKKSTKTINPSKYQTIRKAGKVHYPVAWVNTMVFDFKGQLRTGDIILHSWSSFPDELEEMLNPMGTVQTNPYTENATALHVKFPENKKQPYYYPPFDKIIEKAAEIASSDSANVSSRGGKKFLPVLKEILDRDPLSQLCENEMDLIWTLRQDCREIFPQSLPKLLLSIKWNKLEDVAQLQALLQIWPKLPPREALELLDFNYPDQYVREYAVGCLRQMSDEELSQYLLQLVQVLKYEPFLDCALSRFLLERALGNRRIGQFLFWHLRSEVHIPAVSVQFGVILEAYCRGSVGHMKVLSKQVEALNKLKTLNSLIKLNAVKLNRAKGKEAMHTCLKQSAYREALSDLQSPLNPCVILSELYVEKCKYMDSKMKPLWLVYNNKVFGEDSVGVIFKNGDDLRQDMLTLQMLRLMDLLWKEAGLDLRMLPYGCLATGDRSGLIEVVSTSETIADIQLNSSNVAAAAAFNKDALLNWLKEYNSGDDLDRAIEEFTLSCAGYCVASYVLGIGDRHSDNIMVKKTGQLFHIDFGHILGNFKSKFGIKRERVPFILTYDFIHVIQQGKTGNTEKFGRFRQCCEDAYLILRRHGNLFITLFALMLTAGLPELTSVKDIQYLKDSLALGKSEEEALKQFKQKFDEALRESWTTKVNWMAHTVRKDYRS
Description: Inhibition of recombinant human N-terminal His6-tagged full length p110beta/recombinant human full length p85alpha using PIP2 as substrate preincubated for 30 mins followed by substrate addition and HTRF assay

[40] = system: Rattus norvegicus; experiment: as §1, with “neutrophil” for “eosinophil”, “1” for “0.3”; type: functional; details: inhaled or nasal
[41] = other tissue, inhaled_or_intranasal
[42] = Wistar, lung and plasma, inhaled or intranasal

| SMILES | IC50 [2] [nM] | metabolised at 0.5 h, 5 µM [3] [%] | metabolised at 2 h, 5 µM [4] [%] | metabolised at 0.5 h, 5 µM [5] [%] | metabolised at 2 h, 5 µM [6] [%] | IC50 [7] [nM] | Papp at 20 µM [8] [×10⁻⁶ cm/s] | solubility thermodynamic [9] [µg/mL] | AUC [10] [ng·h/mL] | Cmax [11] [ng/mL] | clearance [12] [mL/min/kg] | Vd [13] [L/kg] | half-life [14] [min] | bioavailability [15] [%] | fraction unbound at 1 µM [16] | AUC [17] [µg·h/g] | AUC [18] [µg·h/g] | AUC [19] [ng·h/mL] | AUC [20] [ng·h/mL] | Cmax [23] [ng/g] | other results |
| --- | --- | --- | --- | --- | --- | --- | --- | --- | --- | --- | --- | --- | --- | --- | --- | --- | --- | --- | --- | --- | --- |
| Cc1ccccc1-n1c(CN2CNc3c(N)ncnc32)nc2cccc(C)c2c1=O |  |  |  |  |  |  |  |  |  |  |  |  |  |  |  |  |  |  |  |  | IC50 [1]: 130 nM |
| Cc1ccn2nc([C@H](C)Nc3ncnc4[nH]cc(-c5cc(NS(C)(=O)=O)cc6[nH]ccc56)c34)n(-c3ccccc3)c(=O)c12 | 36 | 32 | 10 | 68 | 30 | 2.7 | 0.2 | 3 (≈ 5.05 µM) | 171 | 455 | 96 | 5.2 | 102 | 1 | 0.011 | 15.5 | 459.6 | 5.3 | 96.5 | 3400 | Ratio [21, 41]: 2925; Ratio [22, 41]: 4763; Cmax [24]: 73300 ng/g; Cmax [25]: 1.4 ng/mL; Cmax [26]: 16400 ng/mL; half-life [27]: 168 min; half-life [28]: 270 min; half-life [29]: 192 min; half-life [30]: 192 min; inhibition in vivo at 0.3 mg/kg [31]: 55%; inhibition in vivo at 0.3 mg/kg [32]: 77%; inhibition in vivo at 0.1 mg/kg [33]: 21%; inhibition in vivo at 0.1 mg/kg [34]: 42%; inhibition (INH) [35]: Not Active; fCmax [36]: 0.3 nM; IC50 [37]: 0.5 nM; IC50 [38]: 1900 nM; IC50 [39]: 10 nM |
| Cc1ccn2nc([C@H](C)Nc3ncnc(N)c3-c3ccc(O)c(F)c3)n(-c3ccccc3)c(=O)c12 | 11 | 44 | 96 | 71 | 97 | 4.4 | 1.7 | 36 (≈ 76.4 µM) | 149 | 236 | 112 | 5.2 | 60 | 13 | 0.054 | 0.2 | 30.6 | 6.4 | 148 | 700 | Kp [21, 42]: 31; Kp [22, 42]: 207; Cmax [24]: 18600 ng/g; Cmax [25]: 36.3 ng/mL; half-life [27]: 282 min; half-life [28]: 342 min; half-life [29]: 42 min; half-life [30]: 66 min; inhibition in vivo at 1 mg/kg [40]: 37%; IC50 [37]: 0.5 nM; IC50 [38]: 1100 nM; IC50 [39]: 87 nM |
